Reference: US11634404B2 (priority 2016, dated 2023)

How the values were obtained:
Type in all cases: cell-based
panel of 168 GPCRs [1] = target: panel of 168 GPCRs (Homo sapiens, UniProt O95977); conditions: GPCR EDG6; agonist, 10 μM
panel of 168 GPCRs [2] = target: panel of 168 GPCRs (Homo sapiens, UniProt P08173); conditions: GPCR CHRM4; agonist, 10 μM
panel of 168 GPCRs [3] = target: panel of 168 GPCRs (Homo sapiens, UniProt P08908); conditions: GPCR HTR1A; agonist, 10 μM
panel of 168 GPCRs [4] = target: panel of 168 GPCRs (Homo sapiens, UniProt P0DMS8); conditions: GPCR ADORA3; agonist, 10 μM
panel of 168 GPCRs [5] = target: panel of 168 GPCRs (Homo sapiens, UniProt P11229); conditions: GPCR CHRM1; agonist, 10 μM
panel of 168 GPCRs [6] = target: panel of 168 GPCRs (Homo sapiens, UniProt P14416); conditions: GPCR DRD2L; agonist, 10 μM
panel of 168 GPCRs [7] = target: panel of 168 GPCRs (Homo sapiens, UniProt P18089); conditions: GPCR ADRA2B; agonist, 10 μM
panel of 168 GPCRs [8] = target: panel of 168 GPCRs (Homo sapiens, UniProt P21452); conditions: GPCR TACR2; agonist, 10 μM
panel of 168 GPCRs [9] = target: panel of 168 GPCRs (Homo sapiens, UniProt P21554); conditions: GPCR CNR1; agonist, 10 μM
panel of 168 GPCRs [10] = target: panel of 168 GPCRs (Homo sapiens, UniProt P21731); conditions: GPCR TBXA2R; agonist, 10 μM
panel of 168 GPCRs [11] = target: panel of 168 GPCRs (Homo sapiens, UniProt P25025); conditions: GPCR CXCR2; agonist, 10 μM
panel of 168 GPCRs [12] = target: panel of 168 GPCRs (Homo sapiens, UniProt P25106); conditions: GPCR CXCR7; agonist, 10 μM
panel of 168 GPCRs [13] = target: panel of 168 GPCRs (Homo sapiens, UniProt P25116); conditions: GPCR F2R; agonist, 10 μM
Chain of panel of 168 GPCRs (Homo sapiens, UniProt P25116) (P25116 22-425 limits assumed): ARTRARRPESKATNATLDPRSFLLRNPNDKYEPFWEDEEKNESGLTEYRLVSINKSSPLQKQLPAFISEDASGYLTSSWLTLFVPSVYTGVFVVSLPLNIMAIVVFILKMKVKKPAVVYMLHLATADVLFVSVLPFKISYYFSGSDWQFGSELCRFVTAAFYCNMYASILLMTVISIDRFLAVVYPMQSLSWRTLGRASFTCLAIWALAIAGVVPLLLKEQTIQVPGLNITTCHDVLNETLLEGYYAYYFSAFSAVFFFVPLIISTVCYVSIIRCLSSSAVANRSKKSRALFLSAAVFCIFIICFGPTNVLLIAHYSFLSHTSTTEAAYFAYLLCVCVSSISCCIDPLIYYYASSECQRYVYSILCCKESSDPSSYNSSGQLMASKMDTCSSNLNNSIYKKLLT

panel of 168 GPCRs [14] = target: panel of 168 GPCRs (Homo sapiens, UniProt P28222); conditions: GPCR HTR1B; agonist, 10 μM
panel of 168 GPCRs [15] = target: panel of 168 GPCRs (Homo sapiens, UniProt P28223); conditions: GPCR HTR2A; agonist, 10 μM
panel of 168 GPCRs [16] = target: panel of 168 GPCRs (Homo sapiens, UniProt P30550); conditions: GPCR GRPR; agonist, 10 μM
panel of 168 GPCRs [17] = target: panel of 168 GPCRs (Homo sapiens, UniProt P30874); conditions: GPCR SSTR2; agonist, 10 μM
panel of 168 GPCRs [18] = target: panel of 168 GPCRs (Homo sapiens, UniProt P32238); conditions: GPCR CCKAR; agonist, 10 μM
panel of 168 GPCRs [19] = target: panel of 168 GPCRs (Homo sapiens, UniProt P32239); conditions: GPCR CCKBR; agonist, 10 μM
panel of 168 GPCRs [20] = target: panel of 168 GPCRs (Homo sapiens, UniProt P32248); conditions: GPCR CCR7; agonist, 10 μM
Chain of panel of 168 GPCRs (Homo sapiens, UniProt P32248) (P32248 25-378 limits assumed): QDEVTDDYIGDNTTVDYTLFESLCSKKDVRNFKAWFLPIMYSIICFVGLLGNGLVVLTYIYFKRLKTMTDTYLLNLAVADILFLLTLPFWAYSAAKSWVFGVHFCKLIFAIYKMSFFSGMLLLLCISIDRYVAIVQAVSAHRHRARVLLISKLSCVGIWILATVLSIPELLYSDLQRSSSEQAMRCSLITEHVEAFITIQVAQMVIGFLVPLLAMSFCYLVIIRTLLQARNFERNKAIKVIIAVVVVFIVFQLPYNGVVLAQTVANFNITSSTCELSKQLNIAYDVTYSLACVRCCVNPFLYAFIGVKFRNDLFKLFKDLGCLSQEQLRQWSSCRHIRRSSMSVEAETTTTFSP

panel of 168 GPCRs [21] = target: panel of 168 GPCRs (Homo sapiens, UniProt P33032); conditions: GPCR MC5R; agonist, 10 μM
panel of 168 GPCRs [22] = target: panel of 168 GPCRs (Homo sapiens, UniProt P34972); conditions: GPCR CNR2; agonist, 10 μM
panel of 168 GPCRs [23] = target: panel of 168 GPCRs (Homo sapiens, UniProt P41597); conditions: GPCR CCR2; agonist, 10 μM
panel of 168 GPCRs [24] = target: panel of 168 GPCRs (Homo sapiens, UniProt P48146); conditions: GPCR NPBWR2; agonist, 10 μM
panel of 168 GPCRs [25] = target: panel of 168 GPCRs (Homo sapiens, UniProt P51685); conditions: GPCR CCR8; agonist, 10 μM
panel of 168 GPCRs [26] = target: panel of 168 GPCRs (Homo sapiens, UniProt Q8TDV5); conditions: GPCR GPR119; agonist, 10 μM
panel of 168 GPCRs [27] = target: panel of 168 GPCRs (Homo sapiens, UniProt Q92847); conditions: GPCR GHSR; agonist, 10 μM
panel of 168 GPCRs [28] = target: panel of 168 GPCRs (Homo sapiens, UniProt Q96RI0); conditions: GPCR F2RL3; agonist, 10 μM
Chain of panel of 168 GPCRs (Homo sapiens, UniProt Q96RI0) (Q96RI0 18-385 limits assumed): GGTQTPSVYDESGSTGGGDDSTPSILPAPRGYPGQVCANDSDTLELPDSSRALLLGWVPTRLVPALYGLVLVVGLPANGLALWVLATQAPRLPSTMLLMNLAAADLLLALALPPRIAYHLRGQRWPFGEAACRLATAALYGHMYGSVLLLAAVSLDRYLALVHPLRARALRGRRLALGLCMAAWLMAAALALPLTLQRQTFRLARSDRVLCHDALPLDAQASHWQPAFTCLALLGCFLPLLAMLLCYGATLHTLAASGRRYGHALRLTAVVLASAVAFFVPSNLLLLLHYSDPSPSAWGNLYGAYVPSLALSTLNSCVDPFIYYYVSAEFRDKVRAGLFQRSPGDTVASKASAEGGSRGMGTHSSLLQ

panel of 168 GPCRs [29] = target: panel of 168 GPCRs (Homo sapiens, UniProt Q9GZQ6); conditions: GPCR NPFFR1; agonist, 10 μM
panel of 168 GPCRs [30] = target: panel of 168 GPCRs (Homo sapiens, UniProt Q9HC97); conditions: GPCR GPR35; agonist, 10 μM
panel of 168 GPCRs [31] = target: panel of 168 GPCRs (Homo sapiens, UniProt Q9P296); conditions: GPCR C5L2; agonist, 10 μM
panel of 168 GPCRs [32] = conditions: GPCR DRD2S; agonist, 10 μM

SMILES: COc1ccc(OCCN2CCN(C(=O)c3cc4ccccc4[nH]3)CC2)cc1 [Compound 1, (1H-indol-2-yl)(4-(2-(4-methoxyphenoxy)ethyl)piperazin-1-yl)methanone]
- β-Arrestin Recruitment activity (panel of 168 GPCRs [1]): 17%
- β-Arrestin Recruitment activity (panel of 168 GPCRs [2]): 3%
- β-Arrestin Recruitment activity (panel of 168 GPCRs [3]): 8%
- β-Arrestin Recruitment activity (panel of 168 GPCRs [4]): 8%
- β-Arrestin Recruitment activity (panel of 168 GPCRs [5]): 5%
- β-Arrestin Recruitment activity (panel of 168 GPCRs [6]): 37%
- β-Arrestin Recruitment activity (panel of 168 GPCRs [7]): −4%
- β-Arrestin Recruitment activity (panel of 168 GPCRs [8]): 3%
- β-Arrestin Recruitment activity (panel of 168 GPCRs [9]): 5%
- β-Arrestin Recruitment activity (panel of 168 GPCRs [10]): 0%
- β-Arrestin Recruitment activity (panel of 168 GPCRs [11]): 6%
- β-Arrestin Recruitment activity (panel of 168 GPCRs [12]): 3%
- β-Arrestin Recruitment activity (panel of 168 GPCRs [13]): 5%
- β-Arrestin Recruitment activity (panel of 168 GPCRs [14]): 16%
- β-Arrestin Recruitment activity (panel of 168 GPCRs [15]): 4%
- β-Arrestin Recruitment activity (panel of 168 GPCRs [16]): 0%
- β-Arrestin Recruitment activity (panel of 168 GPCRs [17]): 0%
- β-Arrestin Recruitment activity (panel of 168 GPCRs [18]): 0%
- β-Arrestin Recruitment activity (panel of 168 GPCRs [19]): 4%
- β-Arrestin Recruitment activity (panel of 168 GPCRs [20]): 4%
- β-Arrestin Recruitment activity (panel of 168 GPCRs [21]): 5%
- β-Arrestin Recruitment activity (panel of 168 GPCRs [22]): −14%
- β-Arrestin Recruitment activity (panel of 168 GPCRs [23]): 4%
- β-Arrestin Recruitment activity (panel of 168 GPCRs [24]): 3%
- β-Arrestin Recruitment activity (panel of 168 GPCRs [25]): 0%
- β-Arrestin Recruitment activity (panel of 168 GPCRs [26]): 16%
- β-Arrestin Recruitment activity (panel of 168 GPCRs [27]): −3%
- β-Arrestin Recruitment activity (panel of 168 GPCRs [28]): 4%
- β-Arrestin Recruitment activity (panel of 168 GPCRs [29]): 4%
- β-Arrestin Recruitment activity (panel of 168 GPCRs [30]): 6%
- β-Arrestin Recruitment activity (panel of 168 GPCRs [31]): 6%
- β-Arrestin Recruitment activity (panel of 168 GPCRs [32]): 43%
